Literature values, collected in article PMC9516332 (Frontiers in Oncology, 2022).
Read-outs that look alike come from different tables or passages of the source.

Tests used:
Settings in all cases: cited from earlier work
[1] = target: panel of 255 wild-type kinases (Homo sapiens, UniProt P11362)
[2] = target: T1, panel of 255 wild-type kinases (Homo sapiens, UniProt P29323)
T1 sequence (P29323 19-1055): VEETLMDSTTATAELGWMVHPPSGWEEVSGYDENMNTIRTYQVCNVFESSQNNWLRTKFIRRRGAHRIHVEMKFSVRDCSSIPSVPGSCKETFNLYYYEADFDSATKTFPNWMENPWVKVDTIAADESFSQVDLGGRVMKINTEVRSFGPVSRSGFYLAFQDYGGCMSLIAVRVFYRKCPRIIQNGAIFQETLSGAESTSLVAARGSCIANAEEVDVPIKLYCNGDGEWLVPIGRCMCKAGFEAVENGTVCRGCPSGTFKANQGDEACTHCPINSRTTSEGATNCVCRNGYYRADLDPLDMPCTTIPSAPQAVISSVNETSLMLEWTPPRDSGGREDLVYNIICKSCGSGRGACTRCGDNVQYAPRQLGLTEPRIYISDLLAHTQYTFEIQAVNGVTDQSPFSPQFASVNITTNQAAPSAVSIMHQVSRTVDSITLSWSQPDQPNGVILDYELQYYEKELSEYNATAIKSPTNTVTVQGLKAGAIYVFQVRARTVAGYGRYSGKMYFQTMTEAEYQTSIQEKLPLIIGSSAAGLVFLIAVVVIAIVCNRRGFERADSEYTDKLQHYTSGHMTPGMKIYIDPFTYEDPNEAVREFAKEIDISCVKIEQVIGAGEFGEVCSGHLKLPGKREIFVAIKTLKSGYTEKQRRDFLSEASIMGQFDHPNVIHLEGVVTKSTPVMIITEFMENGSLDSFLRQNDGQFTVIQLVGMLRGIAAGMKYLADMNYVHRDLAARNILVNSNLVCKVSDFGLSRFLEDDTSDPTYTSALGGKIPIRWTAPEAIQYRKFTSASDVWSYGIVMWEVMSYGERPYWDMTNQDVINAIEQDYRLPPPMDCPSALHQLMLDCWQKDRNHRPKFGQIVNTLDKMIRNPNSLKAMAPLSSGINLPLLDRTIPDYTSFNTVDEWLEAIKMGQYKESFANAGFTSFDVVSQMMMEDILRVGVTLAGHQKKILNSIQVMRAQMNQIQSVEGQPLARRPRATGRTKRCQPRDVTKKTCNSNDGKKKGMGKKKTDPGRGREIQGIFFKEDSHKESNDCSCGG

[3] = target: T2, panel of 255 wild-type kinases (Homo sapiens, UniProt Q96PF2)
T2 sequence (Q96PF2 1-358): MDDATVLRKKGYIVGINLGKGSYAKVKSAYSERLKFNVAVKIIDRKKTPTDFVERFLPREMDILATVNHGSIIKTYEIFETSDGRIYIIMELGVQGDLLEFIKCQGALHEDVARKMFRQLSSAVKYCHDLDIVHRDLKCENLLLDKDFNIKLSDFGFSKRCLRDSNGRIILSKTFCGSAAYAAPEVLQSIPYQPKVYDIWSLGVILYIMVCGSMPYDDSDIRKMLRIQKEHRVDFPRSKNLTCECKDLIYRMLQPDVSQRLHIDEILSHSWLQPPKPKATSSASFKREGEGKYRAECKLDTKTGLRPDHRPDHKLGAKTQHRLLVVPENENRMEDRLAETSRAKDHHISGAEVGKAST

[4] = target: T3, panel of 255 wild-type kinases (Homo sapiens, UniProt Q9NRA0)
T3 sequence (Q9NRA0 1-654): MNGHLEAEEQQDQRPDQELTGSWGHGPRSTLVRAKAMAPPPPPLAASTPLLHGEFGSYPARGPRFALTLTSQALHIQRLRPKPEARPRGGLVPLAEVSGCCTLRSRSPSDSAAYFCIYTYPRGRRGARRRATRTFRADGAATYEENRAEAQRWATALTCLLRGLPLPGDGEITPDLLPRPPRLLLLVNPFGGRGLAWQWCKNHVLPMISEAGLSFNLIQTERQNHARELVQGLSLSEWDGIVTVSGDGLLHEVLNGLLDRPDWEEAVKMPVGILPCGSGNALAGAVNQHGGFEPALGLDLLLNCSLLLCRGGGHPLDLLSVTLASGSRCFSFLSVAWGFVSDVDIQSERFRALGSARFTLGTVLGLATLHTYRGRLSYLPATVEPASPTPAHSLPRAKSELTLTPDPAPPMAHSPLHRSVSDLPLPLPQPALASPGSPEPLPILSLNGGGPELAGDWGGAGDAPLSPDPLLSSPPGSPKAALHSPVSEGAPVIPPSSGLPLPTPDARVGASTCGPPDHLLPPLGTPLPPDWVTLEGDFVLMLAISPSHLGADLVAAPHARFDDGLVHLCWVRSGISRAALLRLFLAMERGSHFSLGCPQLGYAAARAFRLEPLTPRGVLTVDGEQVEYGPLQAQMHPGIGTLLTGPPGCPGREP

[5] = target: panel of 255 wild-type kinases (Homo sapiens, UniProt P09769)
[6] = kinase FGFR1, 1 µmol/L single concentration, ref DOI: 10.1158/1535-7163.MCT-18-0877
[7] = kinase EPHB2, 1 µmol/L single concentration, ref DOI: 10.1158/1535-7163.MCT-18-0877
[8] = kinase TSSK2, 1 µmol/L single concentration, ref DOI: 10.1158/1535-7163.MCT-18-0877
[9] = kinase SPHK2, 1 µmol/L single concentration, ref DOI: 10.1158/1535-7163.MCT-18-0877
[10] = kinase FGR, 1 µmol/L single concentration, ref DOI: 10.1158/1535-7163.MCT-18-0877
[11] = kinase FGFR1, 1 µmol/L single concentration, ref DOI: 10.1371/journal.pone.0092146
[12] = kinase EPHB2, 1 µmol/L single concentration, ref DOI: 10.1371/journal.pone.0092146
[13] = kinase TSSK2, 1 µmol/L single concentration, ref DOI: 10.1371/journal.pone.0092146
[14] = kinase SPHK2, 1 µmol/L single concentration, ref DOI: 10.1371/journal.pone.0092146
[15] = kinase FGR, 1 µmol/L single concentration, ref DOI: 10.1371/journal.pone.0092146

Row | Compound | %-inhibition at 1 µmol/L, FGFR1 [1, 6] | %-inhibition at 1 µmol/L, EPHB2 [2, 7] | %-inhibition at 1 µmol/L, TSSK2 [3, 8] | %-inhibition at 1 µmol/L, SPHK2 [4, 9] | %-inhibition at 1 µmol/L, FGR [5, 10] | %-inhibition at 1 µmol/L, FGFR1 [1, 11] | %-inhibition at 1 µmol/L, EPHB2 [2, 12] | %-inhibition at 1 µmol/L, TSSK2 [3, 13] | %-inhibition at 1 µmol/L, SPHK2 [4, 14] | %-inhibition at 1 µmol/L, FGR [5, 15] | further results
1 | O=C(c1ccc(F)c(F)c1Nc1ccc(I)cc1F)N1CC(O)([C@@H]2CCCCN2)C1 [cobimetinib] | -1.33% | 1.53% | -2.33% | 11% | -1.29% |  |  |  |  |  | 
2 | CO[C@@H]1[C@H](N(C)C(=O)c2ccccc2)C[C@H]2O[C@]1(C)n1c3ccccc3c3c4c(c5c6ccccc6n2c5c31)C(=O)NC4 [midostaurin] | 93% | 4.5% | 24% | 12% | 93% |  |  |  |  |  | 
3 | C=CC(=O)N1CCC[C@@H](n2nc(-c3ccc(Oc4ccccc4)cc3)c3c(N)ncnc32)C1 [ibrutinib] | 71% | 28% | -4% | 10% | 99% |  |  |  |  |  | 
4 | C[C@@H](Oc1cc(-c2cnn(C3CCNCC3)c2)cnc1N)c1c(Cl)ccc(F)c1Cl [crizotinib] |  |  |  |  |  | 17% | 57% | 0.896% | 8% | 70% | 
5 | Cc1cc(Nc2ncc(Cl)c(Nc3ccccc3S(=O)(=O)C(C)C)n2)c(OC(C)C)cc1C1CCNCC1 [ceritinib] | 11% | 15% | 75% | 6.4% | 5% |  |  |  |  |  | 
6 | CC(C)(C)c1nc(-c2cccc(NS(=O)(=O)c3c(F)cccc3F)c2F)c(-c2ccnc(N)n2)s1 [dabrafenib] |  |  |  |  |  | 10% | -3.38% | -1.73% | -14% | 82% | 
7 | C=CC(=O)Nc1cc(Nc2nccc(-c3cn(C)c4ccccc34)n2)c(OC)cc1N(C)CCN(C)C [osimertinib] | 3.51% | 2.8% | -0.257% | 15% | 5.61% |  |  |  |  |  | 
8 | CC#CC(=O)N1CCC[C@H]1c1nc(-c2ccc(C(=O)Nc3ccccn3)cc2)c2c(N)nccn12 [acalabrutinib] | -2.28% | -0.111% | -3% | 7% | 3% |  |  |  |  |  | 
9 | COc1cc(N2CCC(N3CCN(C)CC3)CC2)ccc1Nc1ncc(Cl)c(Nc2ccccc2P(C)(C)=O)n1 [brigatinib] |  |  |  |  |  |  |  |  |  |  | %-inhibition at 1 µmol/L, FGFR1 [1]: 95%; %-inhibition at 1 µmol/L, EPHB2 [2]: 10%; %-inhibition at 1 µmol/L, TSSK2 [3]: 79%; %-inhibition at 1 µmol/L, SPHK2 [4]: 11%; %-inhibition at 1 µmol/L, FGR [5]: 52%
10 | CCCS(=O)(=O)Nc1ccc(F)c(C(=O)c2c[nH]c3ncc(-c4ccc(Cl)cc4)cc23)c1F [vemurafenib] |  |  |  |  |  | 21% | -2.11% | -11% | 8% | 93% | 
11 | CCc1cc2c(cc1N1CCC(N3CCOCC3)CC1)C(C)(C)c1[nH]c3cc(C#N)ccc3c1C2=O [alectinib] | 5.37% | 27% | 7% | 1.74% | 40% |  |  |  |  |  | 
12 | CC(=O)Nc1cccc(-n2c(=O)n(C3CC3)c(=O)c3c(Nc4ccc(I)cc4F)n(C)c(=O)c(C)c32)c1 [trametinib] |  |  |  |  |  | -1.45% | -8% | -1.73% | -14% | -9% | 
